According to patent US20240199587A1, “HETEROCYCLIC COMPOUNDS” (Hoffmann-La Roche Inc., priority 2021, published 2024):

Biological target: T1, MAGL (Homo sapiens, UniProt Q99685)
T1 sequence (Q99685 1-303): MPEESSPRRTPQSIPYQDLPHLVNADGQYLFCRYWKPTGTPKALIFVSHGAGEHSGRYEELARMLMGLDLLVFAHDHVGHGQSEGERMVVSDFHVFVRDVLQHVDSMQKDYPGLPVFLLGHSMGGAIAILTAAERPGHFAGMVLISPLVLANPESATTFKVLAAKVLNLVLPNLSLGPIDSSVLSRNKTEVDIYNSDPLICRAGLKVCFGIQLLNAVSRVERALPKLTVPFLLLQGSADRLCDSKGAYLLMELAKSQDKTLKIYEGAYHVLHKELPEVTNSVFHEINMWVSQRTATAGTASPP
Experiment: 2-AG assay (MAGL inhibitory activity, hydrolysis of 2-arachidonoylglycerol to arachidonic acid followed by mass spectrometry)
Assay type: biochemical
Settings: 8 μM 2-arachidonoylglycerol, 15 min pre-incubation, 30 min incubation at RT, RapidFire MS readout
Method in brief: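 Human MAGL ([…] final) pre-incubated 15 min at RT with compound in 50 mM TRIS, 1 mM EDTA, 0.01% Tween-20, 2.5% DMSO; 8 μM 2-AG then added for 30 min at RT. Acetonitrile quench with d8-arachidonic acid; arachidonic acid measured by RapidFire SPE–MS/MS, activity from arachidonic acid/d8 ratio.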

IC50 [nM] | SMILES
7.96 | O=C(N1CC2(CC(n3cnc(C4(O)CC4)n3)C2)C1)N1CC2(CN(Cc3ccc(S(=O)(=O)C(F)(F)F)cc3)C2)C1 [Example 412, [6-[3-(1-hydroxycyclopropyl)-1,2,4-triazol-1-yl]-2-azaspiro[3.3]heptan-2-yl]-[6-[[4-(trifluoromethylsulfonyl)phenyl]methyl]-2,6-diazaspiro[3.3]heptan-2-yl]methanone]
47.8 | CS(=O)(=O)c1cc(Cl)ccc1-c1ccc(C2CN(C(=O)N3CC4(CC(n5cncn5)C4)C3)C2)cc1 [Example 413, [3-[4-(4-chloro-2-methylsulfonyl-phenyl)phenyl]azetidin-1-yl]-[6-(1,2,4-triazol-1-yl)-2-azaspiro[3.3]heptan-2-yl]methanone]
2960 | CP(C)(=O)c1ccc(COC2CN(C(=O)N3CC4(CC(n5cnc(C(F)(F)F)n5)C4)C3)C2)cc1 [Example 414, [3-[(4-dimethyl-phosphorylphenyl)methoxy]azetidin-1-yl]-[6-[3-(trifluoromethyl)-1,2,4-triazol-1-yl]-2-azaspiro[3.3]heptan-2-yl]methanone]
1060 | CP(C)(=O)c1ccc(COC2CN(C(=O)N3CC4(CC(n5cnc(C6CC6)n5)C4)C3)C2)cc1 [Example 415, [6-(3-cyclopropyl-1,2,4-triazol-1-yl)-2-azaspiro[3.3]heptan-2-yl]-[3-[(4-dimethylphosphorylphenyl)methoxy]azetidin-1-yl]methanone]
1.12 | CS(=N)(=O)c1cc(F)ccc1CC1CC2(C1)CN(C(=O)N1CC3(CC(n4cnc(C5CC5)n4)C3)C1)C2 (stereo not shown) [Example 416, [6-(3-cyclopropyl-1,2,4-triazol-1-yl)-2-azaspiro[3.3]heptan-2-yl]-[6-[[4-fluoro-2-(methylsulfonimidoyl)phenyl]methyl]-2-azaspiro[3.3]heptan-2-yl]methanone]
359 | CC(C)(C)Cn1nncc1-c1ccc(C2CN(C(=O)N3CC4(CC(n5cncn5)C4)C3)C2)cc1 [Example 417, [3-[4-[3-(2,2-dimethylpropyl)triazol-4-yl]phenyl]azetidin-1-yl]-[6-(1,2,4-triazol-1-yl)-2-azaspiro[3.3]heptan-2-yl]methanone]
4.75 | O=C(N1CC(C23CC(c4nnc(C5(C(F)(F)F)CC5)[nH]4)(C2)C3)C1)N1CC2(CC(n3cnc(C(F)(F)F)n3)C2)C1 [Example 418, [3-[3-[5-[1-(trifluoromethyl)cyclopropyl]-4H-1,2,4-triazol-3-yl]-1-bicyclo[1.1.1]pentanyl]azetidin-1-yl]-[6-[3-(trifluoromethyl)-1,2,4-triazol-1-yl]-2-azaspiro[3.3]heptan-2-yl]methanone]
2.48 | O=C(N1CC(C23CC(c4nnc(C5(C(F)(F)F)CC5)[nH]4)(C2)C3)C1)N1CC2(CC(n3cnc(C4CC4)n3)C2)C1 [Example 419, [6-(3-cyclopropyl-1,2,4-triazol-1-yl)-2-azaspiro[3.3]heptan-2-yl]-[3-[3-[5-[1-(trifluoromethyl)cyclopropyl]-4H-1,2,4-triazol-3-yl]-1-bicyclo[1.1.1]pentanyl]azetidin-1-yl]methanone]
0.74 | O=C(N1CC(C23CC(CNC4(C(F)(F)F)CC4)(C2)C3)C1)N1CC2(CC(n3cnc(C(F)(F)F)n3)C2)C1 [Example 420, [3-[3-[[[1-(trifluoromethyl)cyclopropyl]amino]methyl]-1-bicyclo[1.1.1]pentanyl]azetidin-1-yl]-[6-[3-(trifluoromethyl)-1,2,4-triazol-1-yl]-2-azaspiro[3.3]heptan-2-yl]methanone]
0.76 | O=C(N1CC(C23CC(NCC4(C(F)(F)F)CC4)(C2)C3)C1)N1CC2(CC(n3cnc(C(F)(F)F)n3)C2)C1 [Example 421, [3-[3-[[1-(trifluoromethyl)cyclopropyl]methylamino]-1-bicyclo[1.1.1]pentanyl]azetidin-1-yl]-[6-[3-(trifluoromethyl)-1,2,4-triazol-1-yl]-2-azaspiro[3.3]heptan-2-yl]methanone]
2.81 | O=C(N1CC(c2ccc(N3CC(C(F)(F)F)C3)nc2)C1)N1CC2(CC(n3cnc(C(F)(F)F)n3)C2)C1 [Example 422, [3-[6-[3-(trifluoromethyl)azetidin-1-yl]-3-pyridyl]azetidin-1-yl]-[6-[3-(trifluoromethyl)-1,2,4-triazol-1-yl]-2-azaspiro[3.3]heptan-2-yl]methanone]
38.5 | O=C(N1CC(c2cnc(N3CC(C(F)(F)F)C3)nc2)C1)N1CC2(CC(n3cnc(C(F)(F)F)n3)C2)C1 [Example 423, [3-[2-[3-(trifluoromethyl)azetidin-1-yl]pyrimidin-5-yl]azetidin-1-yl]-[6-[3-(trifluoromethyl)-1,2,4-triazol-1-yl]-2-azaspiro[3.3]heptan-2-yl]methanone]
0.16 | O=C(N1CC(c2ccc(NCC3(C(F)(F)F)CC3)nc2)C1)N1CC2(CC(n3cnc(C(F)(F)F)n3)C2)C1 [Example 424, [3-[6-[[1-(trifluoromethyl)cyclopropyl]methylamino]-3-pyridyl]azetidin-1-yl]-[6-[3-(trifluoromethyl)-1,2,4-triazol-1-yl]-2-azaspiro[3.3]heptan-2-yl]methanone]
5.55 | CC1(Cc2nnc(-c3ccc(C4CN(C(=O)N5CC6(CC(n7cnc(C(F)(F)F)n7)C6)C5)C4)cc3)[nH]2)CC1 [Example 425, [3-[4-[5-[(1-methylcyclopropyl)methyl]-4H-1,2,4-triazol-3-yl]phenyl]azetidin-1-yl]-[6-[3-(trifluoromethyl)-1,2,4-triazol-1-yl]-2-azaspiro[3.3]heptan-2-yl]methanone]
0.7 | O=C(N1CC(c2ccc(N3CC[C@H](C(F)(F)F)C3)nc2)C1)N1CC2(CC(n3cnc(C(F)(F)F)n3)C2)C1 [Example 426, [3-[6-[(3S)-3-(trifluoromethyl)pyrrolidin-1-yl]-3-pyridyl]azetidin-1-yl]-[6-[3-(trifluoromethyl)-1,2,4-triazol-1-yl]-2-azaspiro[3.3]heptan-2-yl]methanone]
0.53 | O=C(N1CC(c2ccc(N3CC[C@@H](C(F)(F)F)C3)nc2)C1)N1CC2(CC(n3cnc(C(F)(F)F)n3)C2)C1 [Example 427, [3-[6-[(3R)-3-(trifluoromethyl)pyrrolidin-1-yl]-3-pyridyl]azetidin-1-yl]-[6-[3-(trifluoromethyl)-1,2,4-triazol-1-yl]-2-azaspiro[3.3]heptan-2-yl]methanone]
58.5 | O=C(N1CC(c2ccc(NCC3CS(=O)(=O)C3)nc2)C1)N1CC2(CC(n3cnc(C(F)(F)F)n3)C2)C1 [Example 428, [3-[6-[(1,1-dioxothietan-3-yl)methylamino]-3-pyridyl]azetidin-1-yl]-[6-[3-(trifluoromethyl)-1,2,4-triazol-1-yl]-2-azaspiro[3.3]heptan-2-yl]methanone]
0.66 | NC(=O)c1ccccc1-c1ccc(C2CN(C(=O)N3CC4(CC(n5cnc(C(F)(F)F)n5)C4)C3)C2)cc1 [Example 429, 2-[4-[1-[6-[3-(trifluoromethyl)-1,2,4-triazol-1-yl]-2-azaspiro[3.3]heptane-2-carbonyl]azetidin-3-yl]phenyl]benzamide]
17.2 | CS(=N)(=O)c1ccc(CC2CC3(C2)CN(C(=O)N2CC4(CC(n5cnc(C(F)(F)F)n5)C4)C2)C3)cc1 (stereo not shown) [Example 430, [6-[[4-(methylsulfonimidoyl)phenyl]methyl]-2-azaspiro[3.3]heptan-2-yl]-[6-[3-(trifluoromethyl)-1,2,4-triazol-1-yl]-2-azaspiro[3.3]heptan-2-yl]methanone]
10.3 | CS(=N)(=O)c1cccc(CC2CC3(C2)CN(C(=O)N2CC4(CC(n5cnc(C(F)(F)F)n5)C4)C2)C3)c1 (stereo not shown) [Example 431, [6-[[3-(methylsulfonimidoyl)phenyl]methyl]-2-azaspiro[3.3]heptan-2-yl]-[6-[3-(trifluoromethyl)-1,2,4-triazol-1-yl]-2-azaspiro[3.3]heptan-2-yl]methanone]
8.3 | O=C(N1CC(C23CC(c4nnc(C5CC5)[nH]4)(C2)C3)C1)N1CC2(CC(n3cnc(C4CC4)n3)C2)C1 [Example 432, [6-(3-cyclopropyl-1,2,4-triazol-1-yl)-2-azaspiro[3.3]heptan-2-yl]-[3-[3-(5-cyclopropyl-4H-1,2,4-triazol-3-yl)-1-bicyclo[1.1.1]pentanyl]azetidin-1-yl]methanone]
44.1 | O=C(N1CC(C23CC(c4nnc(C5CC5)[nH]4)(C2)C3)C1)N1CC2(CC(n3cnc(C(F)(F)F)n3)C2)C1 [Example 433, [3-[3-(5-cyclopropyl-4H-1,2,4-triazol-3-yl)-1-bicyclo[1.1.1]pentanyl]azetidin-1-yl]-[6-[3-(trifluoromethyl)-1,2,4-triazol-1-yl]-2-azaspiro[3.3]heptan-2-yl]methanone]
3.37 | O=C(N1CC2(CC(n3cnc(C4CC4)n3)C2)C1)N1CC2(CCN(Cc3ccc(C(F)(F)F)nc3)C2)C1 [Example 434]
7.69 | O=C(N1CC(C23CC(c4nnc(CC(F)(F)F)o4)(C2)C3)C1)N1CC2(CC(n3cnc(C4CC4)n3)C2)C1 [Example 435, [6-(3-cyclopropyl-1,2,4-triazol-1-yl)-2-azaspiro[3.3]heptan-2-yl]-[3-[3-[5-(2,2,2-trifluoroethyl)-1,3,4-oxadiazol-2-yl]-1-bicyclo[1.1.1]pentanyl]azetidin-1-yl]methanone]
9.82 | O=C(N1CC(C23CC(c4nnc(C5CC5)o4)(C2)C3)C1)N1CC2(CC(n3cnc(C4CC4)n3)C2)C1 [Example 436, [3-[3-(5-cyclopropyl-1,3,4-oxadiazol-2-yl)-1-bicyclo[1.1.1]pentanyl]azetidin-1-yl]-[6-(3-cyclopropyl-1,2,4-triazol-1-yl)-2-azaspiro[3.3]heptan-2-yl]methanone]
